The target in one series is Dopamine D-2 Receptors. The note with it: Table II, known dopamine D-2 receptor ligands; cited from earlier work.
Series [1] has as its target T1, dopamine D2 receptor (Rat Striatal Membranes) (Rattus norvegicus, UniProt P61169).
T1 construct: Rat tissue homogenates were prepared as described previously; from tissue; host or cells: rat striatal membranes (tissue homogenate)
As to the kind of experiment: Competition for ^125 I-FIDA-2 binding to rat striatal membranes. The procedure:
(§1) Rat tissue homogenates were prepared as described previously. Murphy, R. A., et al., J. Med. Chem. 33, 171-178 (1990). The binding assays were performed by incubating 50 μL of tissue preparations containing 40-60 μg of protein with appropriate amounts of ^125 I-labeled ligand and competitors in a total volume of 0.2 mL of the assay buffer. After an incubation period of 15 min at 37° C. (with stirring), the samples were rapidly filtered in a cell harvester (Brandel M-24R) under vacuum through Whatman GF/B glass-fiber filters pretreated with […] protamine base and washed with 3×5 mL of cold (4° C.) 50 mM Tris-HCI buffer, pH 7.4. The nonspecific binding was obtained in the presence of 10 μM (+)butaclamol. The filters were counted in a γ counter (Beckman 5500) at an efficiency of 70%. Both Scatchard and competition experiments were analyzed with the iterative nonlinear least squares curve-fitting program LIGAND.

In series [2] the target is T1, dopamine D2 receptor (Rat Striatal Membranes). In words: Competition for ^125 I-FIDA-1 binding to rat striatal membranes. Here is the method: as §1
For series [3], the system named is dopamine receptors (striatum). In words: Regional brain distribution in rats (uptake ratio of region to cerebellum). Format: in vivo, rat. The note with it: iv. Here is the method:
Male Sprague-Dawley rats (225-300 g), which were allowed free access to food and water, were used for the vivo biodistribution study. While under halothane anesthesia, 0.2 mL of a saline solution containing [^125 I]FIDA 8 or 10 (8-10 μCi) was injected […] into the femoral vein of rats, and they were sacrificed at various time points postinjection by cardiac excision under halothane anesthesia. The organs of interest were removed and weighed and the radioactivity was counted with a Beckman gamma automatic counter (Model 4000). The percent dose per organ was calculated by a comparison of the tissue counts to suitably diluted aliquots of the injected material. Total activities of blood and muscle were calculated under the assumption that they were 7% and 40% of the total body weight, respectively.
Regional brain distribution in rats was obtained after an injection of [^125 I]FIDA 8 or 10. By dissecting, weighing, and counting samples from different brain regions (cortex, striatum, hippocampus, and cerebellum), the percent dose/gram of sample was calculated by comparing the sample counts with the count of the diluted initial dose. The uptake ratio of each region was obtained by dividing the percent dose/gram of each region by that to the cerebellum.

Series [4] in a line: In vivo biodistribution in rats (organ uptake). On the set-up: species or system rat. As to conditions: iv; for liver uptake (in words): first 30 min. The procedure:
Male Sprague-Dawley rats (225-300 g), which were allowed free access to food and water, were used for the vivo biodistribution study. […] The organs of interest were removed and weighed and the radioactivity was counted with a Beckman gamma automatic counter (Model 4000). The percent dose per organ was calculated by a comparison of the tissue counts to suitably diluted aliquots of the injected material. Total activities of blood and muscle were calculated under the assumption that they were 7% and 40% of the total body weight, respectively.

The mark [5] stands for this setting: rat striatal membranes, 15 min at 37° C., nonspecific binding with 10 μM (+)butaclamol, read-out: Ki, inhibition constant on ^125 I-FIDA-2 binding.

Entries after “also recorded” stand apart in the source; their conditions may differ.

T1 sequence (P61169 whole entry): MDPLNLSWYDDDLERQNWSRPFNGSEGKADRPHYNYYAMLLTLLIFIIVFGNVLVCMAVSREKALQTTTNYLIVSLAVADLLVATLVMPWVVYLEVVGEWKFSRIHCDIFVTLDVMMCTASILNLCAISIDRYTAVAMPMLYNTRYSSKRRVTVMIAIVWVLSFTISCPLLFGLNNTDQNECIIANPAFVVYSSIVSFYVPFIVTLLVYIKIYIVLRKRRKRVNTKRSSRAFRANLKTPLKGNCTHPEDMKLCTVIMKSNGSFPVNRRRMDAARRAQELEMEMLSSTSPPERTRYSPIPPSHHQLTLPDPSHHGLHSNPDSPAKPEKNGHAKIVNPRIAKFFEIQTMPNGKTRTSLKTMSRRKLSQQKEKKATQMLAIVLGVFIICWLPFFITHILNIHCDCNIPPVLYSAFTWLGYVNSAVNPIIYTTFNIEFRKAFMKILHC

As to `CCN1CCC[C@H]1CNC(=O)c1cc(I)cc(OC)c1OC` [Epidepride], on Dopamine D-2 Receptors, the Kd is 0.024 nM.
For `COc1cc(I)cc(C(=O)NC[C@H]2CCCN2Cc2ccc(F)cc2)c1OC` [FIDA2, R(+)-2,3-dimethoxy-N-[(1-(4' -fluorobenzyl)-2-pyrrolidinyl)methyl]-5-iodobenzamide], the “binding specificity and selectivity (FIDA2 radioligand)” value in series [1] (competition study with various types of receptor ligands) was “specifically binds to the dopamine D2 receptor with great selectivity”.
Regarding `CCN1CCC[C@H]1CNC(=O)c1cc(CCCF)cc(OC)c1OC` [Fluoropropyl-Epidepride], the equilibrium dissociation constant (Kd) at Dopamine D-2 Receptors was 0.03 nM.
In the case of `CCN1CCC[C@H]1CNC(=O)c1cc(I)cc2c1OCC2` [IBF], on Dopamine D-2 Receptors, the dissociation constant (Kd) was 0.106 nM.
Turning to `CCN1CCC[C@H]1CNC(=O)c1c(OC)ccc(I)c1O` [IBZM], the Kd on Dopamine D-2 Receptors was 0.426 nM.
On to `CCN1CCC[C@H]1CNC(=O)c1c(O)c(I)cc(OC)c1OC` [Ioxipride], for which the dissociation constant Kd on Dopamine D-2 Receptors was 0.019 nM.
As to `CCN1CCC[C@H]1CNC(=O)c1c(O)c(Cl)cc(Cl)c1OC` [Raclopride], the dissociation constant (Kd) at Dopamine D-2 Receptors is 10 nM.
For the compound `COc1cccc(OC)c1OCCNCC1COc2ccccc2O1` (stereo not drawn) [WB 4101], the inhibitory constant (Ki) in series [2] (rat striatal membranes, 15 min at 37° C., nonspecific binding with 10 μM (+)butaclamol, read-out: Ki, inhibition constant on ^125 I-FIDA-1 binding) came to 33.1 ± 1.5 nM; in series [1] (setting [5]) it was 23.3 ± 2.2 nM.
Turning to `CCN1CCC[C@H]1CNC(=O)c1cc([123I])cc(OC)c1OCCF` [[^123 I]FIDA1], in series [3], the “increase in target to nontarget ratio vs. time, hippocampus and cortex” value is reported as “not observed”; the “retention in striatum (in words)” value was “prolonged retention”. The “striatum/cerebellum (ST/CB) ratio” value in series [3] (30 min) amounted to 8.26. The “striatum/cerebellum (ST/CB) ratio” value in series [3] (60 min) stood at 29.3. Also, the “striatum/cerebellum (ST/CB) ratio” value in series [3] (printed 10 min) worked out at 60.7. In addition, in series [4], the “brain uptake (in words)” value is “moderate brain uptake”, the “liver clearance (in words)” value is recorded as “rapidly washed out at 1 h postinjection” and the “liver uptake (in words)” value is “remained high for the first 30 min”. Also, the “brain washout (in words)” value in series [4] (1 h after injection) was “a large portion of the radioactivity has washed out from the brain; also recorded: the radioactivity had washed out from the brain”.
`COc1cc([123I])cc(C(=O)NC[C@H]2CCCN2Cc2ccc(F)cc2)c1OC` [[^123 I]FIDA2]: the ST/CB ratio in series [3] (2 min) was 1.2. The ST/CB ratio in series [3] (120 min) worked out at 25.2. Besides, in series [4], the “brain uptake (in words)” value was “better brain uptake in rats than [^123 I]FIDA1; also recorded: higher brain uptake than [^123 I]FIDA1”, the “liver clearance (in words)” value was “slower than it was for [^123 I]FIDA1” and the “liver uptake (in words)” value was “High initial uptake in the liver”. In addition, the brain uptake in series [4] (time not stated) is reported as 0.98 % dose/organ.
For `CN1[C@@H]2CC[C@H]1C[C@@H](OC(=O)C(CO)c1ccccc1)C2` (stereo partly drawn) [atropine], the Ki in series [2] and in series [1] was greater than 10000 nM each time.
Consider `COC(=O)[C@@H]1[C@H]2C[C@H]3c4[nH]c5ccccc5c4CCN3C[C@@H]2CC[C@@H]1O` [yohimbine], for which, in series [1] (setting [5]), the inhibitory constant (Ki) is 505 ± 70 nM.

As a reminder, the Kd is the constant that tells how readily two partners part at equilibrium. For orientation: Ki means the equilibrium dissociation constant of an inhibitor or competing ligand from its target.

These data come from patent US5446147A (Trustees of the University of Pennsylvania, priority 1992, dated 1995).
